Assay results published in ChEMBL document CHEMBL1201862, “PubChem BioAssay data set” (2004).
Calls of active or inactive are those of the source.

Assays:
[1] = Luminescence Cell-Based Dose Response HTS to Identify Activators of Luciferase Translation or Activity in H4 […] Cells. [Related pubchem assays: 1829 (Project Summary), 1814 (Primary HTS)]; assay type: functional
[2] = Luminescence Cell-Based Dose Confirmation HTS to Identify Activators of 5'UTR Stem-Loop Driven Alpha-Synuclein mRNA Translation in H4 Neuroglioblastoma Cells. [Related pubchem assays: 1829 (Project Summary), 1814 (Primary HTS)]; assay type: functional
H4 = assay: Luminescence Cell-Based Dose Response HTS to Identify Activators of 5'UTR Stem-Loop Driven Prion Protein mRNA Translation in H4 Neuroglioblastoma Cells. [Related pubchem assays: 1829 (Project Summary), 1814 (Primary HTS)]; assay type: functional; conditions: Homo sapiens
Escherichia coli = assay: microbe, parasite or virus in culture
[3] = molecular target: Aryl hydrocarbon receptor (Homo sapiens, UniProt P35869); conditions: Potency;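 also: confirmatory quantitative high-throughput screen measuring activation of the AhR signaling pathway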
Caspase-6 = molecular target: T1, Caspase-6 (Homo sapiens, UniProt P55212); assay: inhibition of CASP6 peptide cleavage – biochemical, VEID-R110 fluorescence, cherry-pick, dose response (AID 720632)
T1 sequence (P55212 whole entry): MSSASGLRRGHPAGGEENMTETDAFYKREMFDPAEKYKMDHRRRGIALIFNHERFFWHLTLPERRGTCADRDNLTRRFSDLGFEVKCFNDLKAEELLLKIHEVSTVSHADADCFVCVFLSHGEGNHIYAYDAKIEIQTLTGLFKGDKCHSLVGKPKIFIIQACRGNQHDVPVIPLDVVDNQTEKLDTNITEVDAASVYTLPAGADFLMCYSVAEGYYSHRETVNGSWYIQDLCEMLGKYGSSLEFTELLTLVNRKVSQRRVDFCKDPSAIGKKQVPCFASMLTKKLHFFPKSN

[4] = molecular target: DNA (cytosine-5)-methyltransferase 1 (Homo sapiens, UniProt P26358); assay: inhibition of DNA methylation by DNMT1 – biochemical, fluorescent molecular beacon, confirmation (AID 602386); assay type: functional
[5] = Fluorescence-based cell-based high throughput dose response assay for inhibitors of the interaction of nucleotide-binding oligomerization domain containing 2 (NOD2) and the receptor-interacting serine-threonine kinase 2 (RIPK2).; assay type: functional; conditions: Homo sapiens
Hexokinase = molecular target: T2, Hexokinase (Trypanosoma brucei, UniProt Q38C41); assay: Confirmation assay for inhibitors of Trypanosoma brucei hexokinase 1-Analogue-first series. [Related pubchem assays (depositor defined):AID1430, AID1632, AID2516, AID2560, AID2579, AID2600, AID449725, AID492951]; assay type: functional
T2 sequence (Q38C41 whole entry): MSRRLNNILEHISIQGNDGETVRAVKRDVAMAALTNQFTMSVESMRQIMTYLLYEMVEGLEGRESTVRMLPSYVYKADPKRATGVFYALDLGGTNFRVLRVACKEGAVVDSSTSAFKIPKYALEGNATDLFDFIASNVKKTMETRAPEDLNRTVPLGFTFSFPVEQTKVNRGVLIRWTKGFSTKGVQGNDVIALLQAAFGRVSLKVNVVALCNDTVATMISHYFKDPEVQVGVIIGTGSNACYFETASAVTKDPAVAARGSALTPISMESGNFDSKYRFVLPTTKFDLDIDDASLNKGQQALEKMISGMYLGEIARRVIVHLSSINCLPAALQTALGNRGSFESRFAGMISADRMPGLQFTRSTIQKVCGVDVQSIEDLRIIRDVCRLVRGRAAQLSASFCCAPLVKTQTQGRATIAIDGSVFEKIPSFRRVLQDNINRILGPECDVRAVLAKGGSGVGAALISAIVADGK

[6] = molecular target: Glucose-6-phosphate 1-dehydrogenase (Homo sapiens, UniProt P11413); assay: inhibition of Homo sapiens G6PD, dose series – biochemical, fluorescence, selectivity assay for P. falciparum G6PD inhibitor project, dose response (AID 504792); assay type: functional
[7] = bead-based luminescence quenchers, dual-tagged ARNT – biochemical, AlphaScreen, cherry-pick, artefact control for ARNT-TACC3 interaction inhibitor project, dose response (AID 651705); assay type: functional;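 also: AlphaScreen bead proximity signal that flags compounds interfering with the detection technology; potency reflects signal decrease which marks the compound as an assay artifact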
[8] = molecular target: 26S proteasome non-ATPase regulatory subunit 14 (Homo sapiens, UniProt O00487); assay: inhibition of proteasome subunit RPN11 – biochemical, fluorescence polarization, uHTS hits, confirmation (AID 602368); assay type: functional
Prothrombin = Prothrombin (Bos taurus, UniProt P00735); assay: thrombin protease inhibitors – biochemical, fluorescence polarization, uHTS hits, dose response (AID 602369); assay type: functional
[9] = molecular target: 72 kDa type IV collagenase (Homo sapiens, UniProt P08253); assay: Dose Response validation of uHTS RPN11 inhibitor hits using a MMP-2 Fluorescence assay.; assay type: functional
[10] = molecular target: T3, Zinc finger protein mex-5 (Caenorhabditis elegans, UniProt Q9XUB2); assay: potency of MEX-5 RNA-binding blockers – biochemical, C. elegans, fluorescence polarization, dose response (AID 1960)
T3 sequence (Q9XUB2 whole entry): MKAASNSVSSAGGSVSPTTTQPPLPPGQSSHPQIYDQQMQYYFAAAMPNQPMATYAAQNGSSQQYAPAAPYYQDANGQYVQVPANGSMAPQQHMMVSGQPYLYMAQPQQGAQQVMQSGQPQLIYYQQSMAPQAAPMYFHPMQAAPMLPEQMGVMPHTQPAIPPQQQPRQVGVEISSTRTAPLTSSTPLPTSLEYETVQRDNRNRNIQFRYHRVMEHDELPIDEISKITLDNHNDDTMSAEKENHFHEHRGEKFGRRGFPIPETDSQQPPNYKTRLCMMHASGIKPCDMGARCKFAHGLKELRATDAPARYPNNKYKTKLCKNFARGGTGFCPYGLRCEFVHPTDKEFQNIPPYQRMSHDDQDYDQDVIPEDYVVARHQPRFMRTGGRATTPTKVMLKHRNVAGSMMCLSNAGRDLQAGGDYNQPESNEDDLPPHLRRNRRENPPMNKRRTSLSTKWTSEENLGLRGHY

[11] = molecular target: T4, RNA-binding protein pos-1 (Caenorhabditis elegans, UniProt G5EF15); assay: disruptors of C. elegans POS-1 RNA interaction – biochemical, fluorescence polarization, dose response (AID 1964);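 also: purified POS-1 fused to maltose binding protein made in E. coli; potency of compounds blocking POS-1 binding to fluorescent RNA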
T4 sequence (G5EF15 whole entry): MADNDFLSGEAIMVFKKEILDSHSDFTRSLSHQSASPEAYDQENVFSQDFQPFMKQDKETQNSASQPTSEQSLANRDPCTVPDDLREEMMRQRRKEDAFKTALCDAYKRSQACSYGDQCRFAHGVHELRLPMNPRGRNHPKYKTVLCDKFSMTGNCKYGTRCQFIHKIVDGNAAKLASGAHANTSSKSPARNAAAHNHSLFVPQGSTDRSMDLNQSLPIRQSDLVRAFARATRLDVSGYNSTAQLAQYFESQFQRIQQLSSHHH

Melanocortin receptor 4 = Melanocortin receptor 4 (Homo sapiens, UniProt P32245); assay type: functional, cell-based;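 also: Cell-based assay with luminescence read-out, confirmatory dose-response testing for agonist activity of biased ligands at MC4R; human U2OS cells with tagged receptor and beta-arrestin; potency of agonists that increase receptor coupling to beta-arrestin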
[12] = molecular target: Tyrosine-protein phosphatase non-receptor type 5 (Homo sapiens, UniProt P54829); assay: PTPN5 enzyme inhibition – biochemical, fluorescence intensity, uHTS hits, confirmation (AID 602372); assay type: functional; conditions: read-out: IC50_Mean
[13] = molecular target: Dual specificity protein phosphatase 3 (Homo sapiens, UniProt P51452); assay: VHR phosphatase inhibition, dose response, selectivity assay for STEP inhibitor project, biochemical (AID 602374); assay type: functional; conditions: read-out: IC50_Mean
[14] = molecular target: Tyrosine-protein phosphatase non-receptor type 11 (Homo sapiens, UniProt Q06124); assay: PTPN11 enzyme inhibitors – biochemical, selectivity assay for STEP inhibitor project, dose response (AID 602367); assay type: functional; conditions: read-out: IC50_Mean
[15] = molecular target: Photoreceptor-specific nuclear receptor (Homo sapiens, UniProt Q9Y5X4); assay type: functional, cell-based;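 also: CHO-S cells with Gal4-NCOR and VP16-NR2E3 two-hybrid luciferase reporter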
[16] = molecular target: T5, Histone-lysine N-methyltransferase NSD2 (Homo sapiens, UniProt O96028); assay type: biochemical
T5 sequence (O96028 whole entry): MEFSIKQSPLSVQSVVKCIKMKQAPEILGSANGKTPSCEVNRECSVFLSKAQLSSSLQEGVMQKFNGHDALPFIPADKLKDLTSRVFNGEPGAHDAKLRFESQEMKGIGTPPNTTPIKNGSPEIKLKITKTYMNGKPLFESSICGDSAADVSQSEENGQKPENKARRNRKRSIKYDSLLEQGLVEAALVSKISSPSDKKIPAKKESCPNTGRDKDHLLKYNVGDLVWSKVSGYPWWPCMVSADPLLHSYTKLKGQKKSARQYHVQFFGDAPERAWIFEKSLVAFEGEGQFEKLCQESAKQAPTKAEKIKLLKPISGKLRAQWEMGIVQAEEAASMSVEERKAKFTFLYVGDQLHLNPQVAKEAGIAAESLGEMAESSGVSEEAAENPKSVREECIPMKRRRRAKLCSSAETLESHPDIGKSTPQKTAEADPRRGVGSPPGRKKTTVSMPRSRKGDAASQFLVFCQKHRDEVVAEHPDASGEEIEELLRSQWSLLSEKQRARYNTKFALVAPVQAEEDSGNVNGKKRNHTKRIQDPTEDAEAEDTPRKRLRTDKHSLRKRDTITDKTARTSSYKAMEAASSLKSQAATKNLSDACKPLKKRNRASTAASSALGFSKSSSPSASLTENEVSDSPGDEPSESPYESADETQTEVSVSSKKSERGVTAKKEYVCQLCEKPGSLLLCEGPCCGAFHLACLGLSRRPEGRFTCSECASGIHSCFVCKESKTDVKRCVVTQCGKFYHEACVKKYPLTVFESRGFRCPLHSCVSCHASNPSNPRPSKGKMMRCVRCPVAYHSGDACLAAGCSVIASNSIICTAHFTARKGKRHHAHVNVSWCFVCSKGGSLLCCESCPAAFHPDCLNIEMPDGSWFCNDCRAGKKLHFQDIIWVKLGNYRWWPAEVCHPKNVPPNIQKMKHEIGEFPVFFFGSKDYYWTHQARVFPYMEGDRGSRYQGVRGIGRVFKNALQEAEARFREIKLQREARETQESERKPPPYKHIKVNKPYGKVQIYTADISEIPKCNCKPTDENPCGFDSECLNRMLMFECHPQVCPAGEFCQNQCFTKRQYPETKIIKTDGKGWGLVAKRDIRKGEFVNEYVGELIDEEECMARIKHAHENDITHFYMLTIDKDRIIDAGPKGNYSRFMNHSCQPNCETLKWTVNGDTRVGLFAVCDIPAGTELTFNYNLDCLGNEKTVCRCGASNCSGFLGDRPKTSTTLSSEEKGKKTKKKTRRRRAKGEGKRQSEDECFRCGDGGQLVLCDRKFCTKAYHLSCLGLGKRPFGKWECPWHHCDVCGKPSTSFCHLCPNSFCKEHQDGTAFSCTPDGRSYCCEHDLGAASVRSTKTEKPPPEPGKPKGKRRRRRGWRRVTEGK

[17] = Luminescence Cell-Based Dose Retest to Confirm Inhibitors of Cancer Stem Cells. [Related pubchem assays (depositor defined):AID2717, AID2721]; assay type: functional; conditions: Homo sapiens
[18] = viability loss of HMLE_sh_eGFP cells – cell-based, luminescence, counter-screen for HMLE_sh_ECad selective toxicity project, dose response (AID 463074); assay type: functional, Homo sapiens;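 also: HMLE human mammary epithelial cells expressing control shRNA against eGFP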

Sequence of 26S proteasome non-ATPase regulatory subunit 14 (O00487 whole entry): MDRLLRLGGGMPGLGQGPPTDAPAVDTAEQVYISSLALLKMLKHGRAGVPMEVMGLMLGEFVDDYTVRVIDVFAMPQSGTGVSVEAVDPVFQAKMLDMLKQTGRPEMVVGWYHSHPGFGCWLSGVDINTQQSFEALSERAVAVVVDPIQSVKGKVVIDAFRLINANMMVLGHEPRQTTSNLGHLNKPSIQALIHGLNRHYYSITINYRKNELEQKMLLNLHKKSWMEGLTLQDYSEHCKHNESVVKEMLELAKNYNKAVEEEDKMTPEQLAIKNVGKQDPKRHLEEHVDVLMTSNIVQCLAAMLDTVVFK
Sequence of 72 kDa type IV collagenase (P08253 whole entry): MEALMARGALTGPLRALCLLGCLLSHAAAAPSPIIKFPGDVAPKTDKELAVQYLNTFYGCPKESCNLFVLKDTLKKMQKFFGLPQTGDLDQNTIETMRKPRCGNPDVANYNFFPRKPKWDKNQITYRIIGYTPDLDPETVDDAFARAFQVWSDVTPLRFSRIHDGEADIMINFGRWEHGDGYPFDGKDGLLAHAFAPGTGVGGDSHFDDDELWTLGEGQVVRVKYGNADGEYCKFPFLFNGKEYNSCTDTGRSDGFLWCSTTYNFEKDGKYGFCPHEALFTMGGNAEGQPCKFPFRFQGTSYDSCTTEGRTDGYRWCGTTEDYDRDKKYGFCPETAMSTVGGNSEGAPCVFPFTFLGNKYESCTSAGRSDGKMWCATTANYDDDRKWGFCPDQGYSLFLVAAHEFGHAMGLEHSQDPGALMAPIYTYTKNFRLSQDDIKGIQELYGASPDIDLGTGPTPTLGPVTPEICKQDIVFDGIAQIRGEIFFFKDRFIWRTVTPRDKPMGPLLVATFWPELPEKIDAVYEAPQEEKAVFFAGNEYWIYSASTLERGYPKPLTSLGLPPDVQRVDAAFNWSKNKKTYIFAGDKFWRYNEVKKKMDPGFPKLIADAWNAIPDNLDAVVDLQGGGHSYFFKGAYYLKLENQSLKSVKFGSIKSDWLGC
Sequence of Melanocortin receptor 4 (P32245 whole entry): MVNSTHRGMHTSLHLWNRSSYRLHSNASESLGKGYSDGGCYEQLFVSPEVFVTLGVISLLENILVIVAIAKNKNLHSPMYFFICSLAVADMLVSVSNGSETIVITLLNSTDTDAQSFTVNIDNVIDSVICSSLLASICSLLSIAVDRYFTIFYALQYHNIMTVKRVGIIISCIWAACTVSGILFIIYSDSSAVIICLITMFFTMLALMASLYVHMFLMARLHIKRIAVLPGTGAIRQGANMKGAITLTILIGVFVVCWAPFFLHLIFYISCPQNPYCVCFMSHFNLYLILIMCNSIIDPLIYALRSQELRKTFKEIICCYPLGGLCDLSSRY
Sequence of DNA (cytosine-5)-methyltransferase 1 (P26358 whole entry, the tested form may be a part): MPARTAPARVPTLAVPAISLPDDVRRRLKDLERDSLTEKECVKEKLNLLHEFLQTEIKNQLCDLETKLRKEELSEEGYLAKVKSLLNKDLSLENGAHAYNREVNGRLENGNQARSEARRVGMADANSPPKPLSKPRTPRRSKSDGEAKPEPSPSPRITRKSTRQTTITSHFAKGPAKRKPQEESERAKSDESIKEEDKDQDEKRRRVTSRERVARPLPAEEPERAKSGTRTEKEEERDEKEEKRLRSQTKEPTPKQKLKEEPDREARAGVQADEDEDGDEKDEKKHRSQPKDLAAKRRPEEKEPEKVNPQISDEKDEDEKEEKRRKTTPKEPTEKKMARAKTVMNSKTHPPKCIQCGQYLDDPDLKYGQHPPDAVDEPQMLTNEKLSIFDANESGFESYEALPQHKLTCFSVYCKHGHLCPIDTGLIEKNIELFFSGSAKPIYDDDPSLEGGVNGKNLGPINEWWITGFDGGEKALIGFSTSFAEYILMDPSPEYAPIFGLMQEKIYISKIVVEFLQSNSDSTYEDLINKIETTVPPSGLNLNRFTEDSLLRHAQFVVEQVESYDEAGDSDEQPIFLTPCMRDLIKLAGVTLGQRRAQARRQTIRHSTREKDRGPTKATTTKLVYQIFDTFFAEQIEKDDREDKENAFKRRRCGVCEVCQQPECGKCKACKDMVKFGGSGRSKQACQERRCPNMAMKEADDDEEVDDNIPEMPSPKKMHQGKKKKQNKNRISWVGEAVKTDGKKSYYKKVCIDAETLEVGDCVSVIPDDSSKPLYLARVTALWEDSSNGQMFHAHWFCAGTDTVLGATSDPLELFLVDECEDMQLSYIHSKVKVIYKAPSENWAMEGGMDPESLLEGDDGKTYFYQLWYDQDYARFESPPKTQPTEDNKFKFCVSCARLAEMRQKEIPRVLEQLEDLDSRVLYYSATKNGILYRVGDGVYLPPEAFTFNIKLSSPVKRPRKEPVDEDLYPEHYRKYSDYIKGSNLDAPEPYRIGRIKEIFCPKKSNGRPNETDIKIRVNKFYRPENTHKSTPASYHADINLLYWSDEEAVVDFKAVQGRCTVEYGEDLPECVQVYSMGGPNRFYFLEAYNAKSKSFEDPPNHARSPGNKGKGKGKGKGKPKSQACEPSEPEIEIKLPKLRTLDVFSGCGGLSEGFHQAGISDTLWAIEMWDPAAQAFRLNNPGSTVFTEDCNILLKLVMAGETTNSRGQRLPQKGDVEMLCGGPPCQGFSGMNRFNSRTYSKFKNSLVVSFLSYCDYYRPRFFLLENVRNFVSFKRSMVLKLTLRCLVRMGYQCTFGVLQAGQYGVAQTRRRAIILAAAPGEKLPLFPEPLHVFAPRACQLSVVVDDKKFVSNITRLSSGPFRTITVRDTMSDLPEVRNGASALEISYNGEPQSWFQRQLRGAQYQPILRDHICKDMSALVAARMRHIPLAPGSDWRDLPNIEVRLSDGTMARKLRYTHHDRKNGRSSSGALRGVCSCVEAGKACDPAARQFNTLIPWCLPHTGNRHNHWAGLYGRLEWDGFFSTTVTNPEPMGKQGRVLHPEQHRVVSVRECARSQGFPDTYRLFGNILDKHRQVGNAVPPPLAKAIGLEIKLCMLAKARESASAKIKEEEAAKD
Sequence of Glucose-6-phosphate 1-dehydrogenase (P11413 whole entry): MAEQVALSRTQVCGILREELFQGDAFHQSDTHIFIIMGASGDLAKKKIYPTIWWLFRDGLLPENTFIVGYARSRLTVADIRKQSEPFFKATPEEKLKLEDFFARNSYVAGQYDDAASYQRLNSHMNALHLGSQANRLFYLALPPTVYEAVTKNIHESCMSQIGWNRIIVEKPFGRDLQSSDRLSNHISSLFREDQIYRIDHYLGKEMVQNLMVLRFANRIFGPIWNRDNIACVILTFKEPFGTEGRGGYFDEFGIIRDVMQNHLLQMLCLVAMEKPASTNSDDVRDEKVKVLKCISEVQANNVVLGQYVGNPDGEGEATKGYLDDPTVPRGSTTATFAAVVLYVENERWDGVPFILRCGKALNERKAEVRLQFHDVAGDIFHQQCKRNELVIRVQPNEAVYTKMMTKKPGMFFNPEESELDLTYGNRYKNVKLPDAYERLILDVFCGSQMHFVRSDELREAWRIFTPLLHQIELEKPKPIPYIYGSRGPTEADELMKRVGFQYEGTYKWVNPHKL
Sequence of Dual specificity protein phosphatase 3 (P51452 whole entry): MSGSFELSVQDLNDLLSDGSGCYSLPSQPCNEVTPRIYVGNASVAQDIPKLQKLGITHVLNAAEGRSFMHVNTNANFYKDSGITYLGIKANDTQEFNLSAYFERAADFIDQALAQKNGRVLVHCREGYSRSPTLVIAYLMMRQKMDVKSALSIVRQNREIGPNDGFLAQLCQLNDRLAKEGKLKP
Sequence of Aryl hydrocarbon receptor (P35869 whole entry): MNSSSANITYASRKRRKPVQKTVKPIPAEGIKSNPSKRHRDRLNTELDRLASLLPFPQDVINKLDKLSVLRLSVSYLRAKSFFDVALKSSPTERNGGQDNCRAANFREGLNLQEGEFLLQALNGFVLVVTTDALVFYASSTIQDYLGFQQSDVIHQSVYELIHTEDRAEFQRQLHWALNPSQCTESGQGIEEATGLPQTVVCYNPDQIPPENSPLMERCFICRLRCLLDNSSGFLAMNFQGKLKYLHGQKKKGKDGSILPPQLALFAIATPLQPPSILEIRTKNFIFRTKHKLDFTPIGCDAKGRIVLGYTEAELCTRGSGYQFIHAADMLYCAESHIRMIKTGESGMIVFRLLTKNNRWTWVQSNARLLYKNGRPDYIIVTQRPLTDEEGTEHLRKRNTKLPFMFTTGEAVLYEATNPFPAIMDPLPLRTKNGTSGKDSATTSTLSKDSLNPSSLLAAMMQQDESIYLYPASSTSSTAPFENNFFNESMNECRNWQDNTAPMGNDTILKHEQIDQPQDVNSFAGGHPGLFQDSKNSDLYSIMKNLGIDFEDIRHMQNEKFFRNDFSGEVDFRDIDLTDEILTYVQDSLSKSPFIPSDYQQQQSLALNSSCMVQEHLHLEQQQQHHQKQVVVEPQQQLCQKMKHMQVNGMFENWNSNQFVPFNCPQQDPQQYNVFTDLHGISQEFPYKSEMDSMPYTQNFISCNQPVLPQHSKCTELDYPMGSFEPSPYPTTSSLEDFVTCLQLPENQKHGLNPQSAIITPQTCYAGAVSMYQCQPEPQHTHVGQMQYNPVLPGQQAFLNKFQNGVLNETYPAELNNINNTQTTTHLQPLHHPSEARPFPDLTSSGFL
Sequence of Photoreceptor-specific nuclear receptor (Q9Y5X4 whole entry, the tested form may be a part): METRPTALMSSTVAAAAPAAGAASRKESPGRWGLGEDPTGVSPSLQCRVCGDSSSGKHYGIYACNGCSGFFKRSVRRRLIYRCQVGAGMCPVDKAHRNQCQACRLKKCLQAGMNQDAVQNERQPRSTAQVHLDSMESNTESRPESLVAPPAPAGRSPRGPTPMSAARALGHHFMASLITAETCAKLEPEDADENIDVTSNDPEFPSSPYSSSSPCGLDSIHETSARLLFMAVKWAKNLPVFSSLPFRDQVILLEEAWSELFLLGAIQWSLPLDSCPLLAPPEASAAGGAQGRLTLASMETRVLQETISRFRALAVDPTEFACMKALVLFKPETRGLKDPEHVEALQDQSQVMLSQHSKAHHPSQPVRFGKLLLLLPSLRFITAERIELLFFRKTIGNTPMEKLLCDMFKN

CC1Cc2cc(C(=O)C3=C(O)C(=O)N(Cc4ccco4)C3c3cccs3)ccc2O1 (stereo not drawn)
EC50 [1]: 8.54 µM (active) | EC50 [2]: 11.9 µM (active) | EC50 (H4): 35.2 µM (active) | AC50 (Escherichia coli): 18.3 µM (active)

CCNP(=S)(OC)O/C(C)=C/C(=O)OC(C)C (stereo not drawn) [PROPETAMPHOS]
AC50 [3]: 50.1 µM (inconclusive)

COc1ccc(S(=O)(=O)N2CCN(C(=O)C3COc4ccccc4O3)CC2)cc1 (stereo not drawn)
AC50 (Caspase-6): 0.685 µM (active) | IC50 [4]: 5.82 µM (active)

O=C(Cn1sc2ccccc2c1=O)Nc1ccc(Cl)cc1
IC50 [5]: 7.04 µM (active) | IC50 (Hexokinase): 12.9 µM (active) | IC50 [6]: 12.5 µM (active)

COc1ccc(NC(=O)CSc2c(C)nn(-c3nnc(C)c(O)n3)c2C)cc1
AC50 [7]: 133 µM (active)

Cc1nnc(O)nc1N/N=C/c1ccco1
AC50 [7]: 119 µM (active)

Cc1cc(C)c2c(=O)[nH]c(=O)n(Cc3ccccc3)c2n1
IC50 [8]: 38.4 µM (active) | IC50 (Prothrombin): 46.6 µM (active) | IC50 [9]: > 100 µM (inactive) | EC50 [10]: > 300 µM (not active) | EC50 [11]: > 300 µM (not active)

CC(C)c1ccc(NS(=O)(=O)c2ccc(-n3cccn3)cc2)cc1
EC50 (Melanocortin receptor 4): > 89.2 µM (inactive)

Cc1ccccc1N1CCN(C(=S)c2ccc(-c3cccc([N+](=O)[O-])c3)o2)CC1
IC50 [12]: 62.2 µM (inactive) | IC50 [13]: 4.61 µM (active) | IC50 [14]: 11.3 µM (active)

COc1ccc(/C=C2\Oc3cc(OCC(=O)N4CCC[C@H]4C(=O)O)ccc3C2=O)c(OC)c1
IC50 [8]: 11 µM (active) | IC50 (Prothrombin): 14.3 µM (active) | IC50 [9]: > 100 µM (inactive)

COc1ccc([C@@H]2C[C@H]3[C@@H](CN2S(=O)(=O)c2ccccc2)C(=O)C[C@@H](c2cccc(Cl)c2)N3S(=O)(=O)c2ccc(C)cc2)cc1
IC50 [15]: 39.8 µM (inactive)

COc1cc(/C=C2/C(=N)N3C(=NC2=O)SN=C3S(C)(=O)=O)ccc1OC(=O)c1ccco1
IC50 [8]: 31.9 µM (active) | IC50 (Prothrombin): 34.4 µM (active) | IC50 [9]: 94.8 µM (active)

ClN=C1C=CC=CC1=NCl
AC50 [16]: 4.62 µM (active) | IC50 [4]: 7.2 µM (active)

COc1cc(/C=C2\Oc3ccc(C#Cc4ccc(O)cc4)cc3C2=O)cc(OC)c1
AC50 [17]: 1.41 µM (active) | AC50 [18]: 29.7 µM (active) | EC50 (Melanocortin receptor 4): > 89.2 µM (inactive)
